Literature values in publication PMC4210863 (Bioorganic & medicinal chemistry, 2010).

Target: T1, O-GlcNAcase (OGA) (Homo sapiens, UniProt O60502)
T1 sequence (O60502 1-916): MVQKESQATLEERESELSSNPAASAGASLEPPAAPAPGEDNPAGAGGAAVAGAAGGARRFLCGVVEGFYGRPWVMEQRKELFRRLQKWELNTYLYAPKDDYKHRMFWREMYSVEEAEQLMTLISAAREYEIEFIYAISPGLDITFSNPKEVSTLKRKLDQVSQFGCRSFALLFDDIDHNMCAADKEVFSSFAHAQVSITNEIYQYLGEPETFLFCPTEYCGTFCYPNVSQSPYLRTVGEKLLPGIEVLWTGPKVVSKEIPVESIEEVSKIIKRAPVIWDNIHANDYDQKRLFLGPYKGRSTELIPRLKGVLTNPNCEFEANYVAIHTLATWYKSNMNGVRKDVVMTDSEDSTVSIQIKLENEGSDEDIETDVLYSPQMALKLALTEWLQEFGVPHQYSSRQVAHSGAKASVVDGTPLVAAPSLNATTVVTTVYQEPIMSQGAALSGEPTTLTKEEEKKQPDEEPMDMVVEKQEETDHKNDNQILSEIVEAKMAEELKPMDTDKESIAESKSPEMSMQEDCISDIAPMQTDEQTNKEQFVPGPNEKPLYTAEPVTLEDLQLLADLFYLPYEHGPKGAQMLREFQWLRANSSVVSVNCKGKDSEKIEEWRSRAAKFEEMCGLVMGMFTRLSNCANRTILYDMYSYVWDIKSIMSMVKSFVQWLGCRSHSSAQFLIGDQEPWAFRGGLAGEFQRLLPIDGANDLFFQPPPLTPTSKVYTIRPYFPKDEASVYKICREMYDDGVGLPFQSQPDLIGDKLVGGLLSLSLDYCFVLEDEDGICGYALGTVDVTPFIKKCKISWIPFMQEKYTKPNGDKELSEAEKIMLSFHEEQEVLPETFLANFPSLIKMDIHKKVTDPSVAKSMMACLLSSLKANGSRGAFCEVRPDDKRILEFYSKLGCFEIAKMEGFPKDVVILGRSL
Assay: fluorogenic substrate hydrolysis by OGA
Assay type: biochemical

CC(=O)N[C@H]1[C@H](Oc2ccc3c(c2)Oc2cc(O[C@@H]4O[C@H](CO)[C@@H](O)[C@H](O)[C@H]4NC(C)=O)ccc2C32OC(=O)c3ccccc32)O[C@H](CO)[C@@H](O)[C@@H]1O [compound 3, FDGlcNAc]
Km: 85 µM
